Measured values as given in patent US8921368B2, “Pyrrolopyridazine JAK3 inhibitors and their use for the treatment of inflammatory and autoimmune diseases” (Bristol-Myers Squibb Company, priority 2011, dated 2014).

What was measured:
JAK1 = JAK1 (Homo sapiens (Human), UniProt P23458); assay: JAK1 Kinase Assay Protocol; assay type: biochemical; details: GST-JAK1; ATP 100 μM; Caliper LabChip; read-out: LLE_JAK1 (IC50)
Protocol: JAK1 Kinase Assay Protocol
The assay reactions were performed in U-bottom 384-well plates. The final assay volume was 30 μl prepared from 15 μl additions of enzyme and substrates (fluoresceinated peptide and ATP) and test compounds in assay buffer (20 mM HEPES pH 7.4, 10 mM MgCl2, 25 mM beta-glycerol phosphate, 0.015% Brij35 and 4 mM DTT). The reaction was initiated by the combination of GST-JAK1 enzyme with substrates and test compounds. The reactions were incubated at room temperature for 3 hours and terminated by adding 60 μl of 35 mM EDTA to each sample. […] The final concentration of reagents in the assays was: ATP, 100 μM; fluoresceinated peptide, 1.5 μM; GST-JAK1, 12.5 nM; and DMSO, 1.6%. […] Compounds were dissolved at 10 mM in dimethylsulfoxide (DMSO) and evaluated at eleven concentrations. IC50 values were derived by non-linear regression analysis.

JAK3 = JAK3 (Homo sapiens (Human), UniProt P52333); assay: JAK3 Kinase Assay (Caliper / Filter protocols); assay type: biochemical; details: JAK3 kinase inhibition; ATP 8 μM; read-out: LLE_JAK3_FB (IC50)
JAK3, sequence (P52333 whole entry): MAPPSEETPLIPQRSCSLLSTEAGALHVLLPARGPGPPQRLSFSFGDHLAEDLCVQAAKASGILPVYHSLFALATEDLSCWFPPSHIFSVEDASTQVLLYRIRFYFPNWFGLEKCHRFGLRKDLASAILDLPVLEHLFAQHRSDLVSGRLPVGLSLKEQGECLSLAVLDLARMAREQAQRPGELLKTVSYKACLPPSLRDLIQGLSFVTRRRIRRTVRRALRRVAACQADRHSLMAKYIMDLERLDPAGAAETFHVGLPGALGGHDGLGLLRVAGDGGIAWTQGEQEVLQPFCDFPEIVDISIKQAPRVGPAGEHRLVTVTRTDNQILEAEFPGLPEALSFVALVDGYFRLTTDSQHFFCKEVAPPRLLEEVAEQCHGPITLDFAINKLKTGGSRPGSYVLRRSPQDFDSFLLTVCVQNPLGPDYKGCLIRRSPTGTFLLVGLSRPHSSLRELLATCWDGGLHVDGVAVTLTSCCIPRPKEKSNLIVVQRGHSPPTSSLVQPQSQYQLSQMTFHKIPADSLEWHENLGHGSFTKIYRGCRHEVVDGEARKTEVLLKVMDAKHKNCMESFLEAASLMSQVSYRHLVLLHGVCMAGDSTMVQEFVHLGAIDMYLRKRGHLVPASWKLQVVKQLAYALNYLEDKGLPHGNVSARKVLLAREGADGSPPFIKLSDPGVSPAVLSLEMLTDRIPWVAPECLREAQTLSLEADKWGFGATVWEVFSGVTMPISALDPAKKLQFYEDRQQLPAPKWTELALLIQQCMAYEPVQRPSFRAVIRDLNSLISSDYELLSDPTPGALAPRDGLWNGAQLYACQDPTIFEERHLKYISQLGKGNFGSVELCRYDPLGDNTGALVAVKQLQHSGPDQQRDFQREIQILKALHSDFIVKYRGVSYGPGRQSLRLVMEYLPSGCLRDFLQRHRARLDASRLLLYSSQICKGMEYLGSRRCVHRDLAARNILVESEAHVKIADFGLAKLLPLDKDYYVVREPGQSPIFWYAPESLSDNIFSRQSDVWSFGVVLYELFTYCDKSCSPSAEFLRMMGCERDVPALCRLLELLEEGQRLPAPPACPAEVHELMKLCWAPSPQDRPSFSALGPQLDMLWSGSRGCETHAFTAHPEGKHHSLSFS
Protocol: JAK3 Kinase Assay Protocol (Caliper)
The assay reactions were performed in U-bottom 384-well plates. […] The reaction was initiated by the combination of GST-JAK3 enzyme with substrates and test compounds. The reactions were incubated at room temperature for 3 hours and terminated by adding 60 μl of 35 mM EDTA to each sample. […] Compounds were dissolved at 10 mM in dimethylsulfoxide (DMSO) and evaluated at eleven concentrations. IC50 values were derived by non-linear regression analysis.
JAK3 Kinase Assay Protocol (Filter)
Kinase reactions consisted of 5 ng of JAK3 enzyme, 30 uM CSKtide substrate, 0.2 μCi ^33P γ-ATP, 8 μM ATP in 30 μl kinase buffer (50 mM Hepes, pH 8.0, 10 mM MgCl2, 1 mM EGTA, 2 mM DTT). Reactions were incubated for 30 minutes at room temperature and stopped by the addition of cold trichloroacetic acid (TCA) to a final concentration of 15%. TCA precipitates were collected onto 384 well phosphocellulose filters (Millipore) using a Platemate to transfer the reaction mixture, washed on an EMBLA plate washer and the filters were quantitated using a TopCount 384-well liquid scintillation counter. […] Compounds were dissolved at 10 mM in dimethylsulfoxide (DMSO) and evaluated at six concentrations, each in triplicate. The final concentration of DMSO in the assay equaled 2%. IC50 values were derived by non-linear regression analysis.

JAK1, sequence (P23458 whole entry): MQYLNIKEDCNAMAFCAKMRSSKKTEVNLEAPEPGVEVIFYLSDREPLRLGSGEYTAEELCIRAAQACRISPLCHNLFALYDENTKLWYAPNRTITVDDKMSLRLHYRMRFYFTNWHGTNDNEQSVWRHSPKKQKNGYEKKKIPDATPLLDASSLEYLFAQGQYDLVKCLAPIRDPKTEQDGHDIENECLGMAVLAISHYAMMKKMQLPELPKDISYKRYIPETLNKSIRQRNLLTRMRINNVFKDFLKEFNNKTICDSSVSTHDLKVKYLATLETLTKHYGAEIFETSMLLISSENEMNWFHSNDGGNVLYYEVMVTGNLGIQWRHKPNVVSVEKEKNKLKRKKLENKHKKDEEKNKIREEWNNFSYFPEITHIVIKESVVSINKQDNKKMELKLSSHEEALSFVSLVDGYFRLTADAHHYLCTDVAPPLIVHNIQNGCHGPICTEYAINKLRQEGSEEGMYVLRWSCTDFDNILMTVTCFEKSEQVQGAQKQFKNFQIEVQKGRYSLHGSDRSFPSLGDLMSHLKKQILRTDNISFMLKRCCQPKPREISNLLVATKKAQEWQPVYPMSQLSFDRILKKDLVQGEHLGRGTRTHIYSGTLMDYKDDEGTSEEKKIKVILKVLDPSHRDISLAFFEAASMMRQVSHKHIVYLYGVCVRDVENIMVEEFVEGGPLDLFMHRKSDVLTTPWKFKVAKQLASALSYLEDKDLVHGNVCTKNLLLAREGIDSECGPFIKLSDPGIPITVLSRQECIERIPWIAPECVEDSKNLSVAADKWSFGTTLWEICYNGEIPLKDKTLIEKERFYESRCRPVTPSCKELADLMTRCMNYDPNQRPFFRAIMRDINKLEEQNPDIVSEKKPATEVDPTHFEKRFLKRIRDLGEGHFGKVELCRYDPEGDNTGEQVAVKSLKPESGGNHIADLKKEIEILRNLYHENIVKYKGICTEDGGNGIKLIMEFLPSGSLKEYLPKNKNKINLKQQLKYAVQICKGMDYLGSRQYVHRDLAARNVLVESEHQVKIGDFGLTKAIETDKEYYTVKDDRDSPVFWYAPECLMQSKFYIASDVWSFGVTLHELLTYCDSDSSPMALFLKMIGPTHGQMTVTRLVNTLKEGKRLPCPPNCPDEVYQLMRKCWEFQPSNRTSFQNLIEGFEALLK

Row | IC50 (JAK1) [nM] | IC50 (JAK3) [nM] | Compound
1 | 0.7 | 0.5 | CC1(C)[C@H](Nc2c(C(N)=O)cnn3cc(-c4cccnc4)cc23)CC[C@]1(C)N [Example 192, 4-(((1R,3S)-3-amino-2,2,3-trimethylcyclopentyl)amino)-6-(3-pyridinyl) pyrrolo[1,2-b]pyridazine-3-carboxamide]
2 | 1.2 | 0.3 | COc1ccc(-c2cc3c(N[C@@H]4CC[C@](C)(C(N)=O)C4(C)C)c(C(N)=O)cnn3c2)cn1 [Example 338, 4-((1R,3S)-3-carbamoyl-2,2,3-trimethylcyclopentylamino)-6-(6-methoxypyridin-3-yl)pyrrolo[1,2-b]pyridazine-3-carboxamide]
3 | 8.2 | 0.9 | CC(=O)Nc1cc2c(N[C@@H]3CC[C@@](C)(O)C3(C)C)c(C(N)=O)cnn2c1 (racemic) [Example 7]
4 | 45.8 | 6 | CC1(C)[C@H](Nc2c(C(N)=O)cnn3cc(NS(C)(=O)=O)cc23)CC[C@@]1(C)O (racemic) [Example 3]
5 | 2.9 | 0.5 | CC1(C)CCC[C@H]1Nc1c(C(N)=O)cnn2cc(-c3ccccc3)cc12 [Example 304, 4-(((1R)-2,2-dimethylcyclopentyl)amino)-6-phenylpyrrolo[1,2-b] pyridazine-3-carboxamide]
6 | 83.9 | 8.1 | CCS(=O)(=O)Nc1cc2c(N[C@@H]3CC[C@@](C)(O)C3(C)C)c(C(N)=O)cnn2c1 (racemic) [Example 25]
7 | 35.2 | 15 | CC1(C)[C@H](Nc2c(C(N)=O)cnn3cc(-c4cncc(C(=O)O)c4)cc23)CC[C@]1(C)N [Example 276, 5-(4-(((1R,3S)-3-amino-2,2,3-trimethylcyclopentyl)amino)-3-carbamoylpyrrolo[1,2-b]pyridazin-6-yl)nicotinic acid]
8 | 2.1 | 4.7 | NC(=O)c1cnn2cc(-c3ccc(F)cc3)cc2c1NC12CC3CC(O)(CC(O)(C3)C1)C2 [Example 298, 4-((3,5-dihydroxyadamantan-1-yl)amino)-6-(4-fluorophenyl)pyrrolo [1,2-b]pyridazine-3-carboxamide]
9 | 2.7 | 6 | CC1(C)[C@H](Nc2c(C(N)=O)cnn3cc(-c4ccccc4C(N)=O)cc23)CC[C@]1(C)N [Example 255, 4-(((1R,3S)-3-amino-2,2,3-trimethylcyclopentyl)amino)-6-(2-carbamoylphenyl)pyrrolo [1,2-b]pyridazine-3-carboxamide]
10 | 25.1 | 8.4 | COc1ncc(-c2cc3c(N[C@@H]4CC[C@](C)(N)C4(C)C)c(C(N)=O)cnn3c2)cn1 [Example 278, 4-(((1R,3S)-3-amino-2,2,3-trimethylcyclopentyl)amino)-6-(2-methoxy-5-pyrimidinyl)pyrrolo[1,2-b]pyridazine-3-carboxamide]
11 |  | 34.2 | COc1ccc(S(=O)(=O)Nc2cc3c(N[C@@H]4CC[C@@](C)(O)C4(C)C)c(C(N)=O)cnn3c2)cc1 (racemic) [Example 24]
12 | 1.4 | 0.4 | CC1(C)[C@H](Nc2c(C(N)=O)cnn3cc(-c4ccccc4)cc23)CC[C@]1(C)C(N)=O [Example 337, 4-((1R,3S)-3-carbamoyl-2,2,3-trimethylcyclopentylamino)-6-phenylpyrrolo[1,2-b]pyridazine-3-carboxamide]
13 | 3.8 | 0.5 | C[C@]1(F)CCC[C@H]1Nc1c(C(N)=O)cnn2cc(N3CCCC3=O)cc12 (racemic) [Example 159]
14 | 17.4 | 5.1 | C[C@]1(O)CCCC[C@@H]1Nc1c(C(N)=O)cnn2cc(-c3ccccc3)cc12 (racemic) [Example 314, (+/−)-4-(((1S,2S)-2-hydroxy-2-methylcyclohexyl)amino)-6-phenylpyrrolo[1,2-b]-pyridazine-3-carboxamide]
15 | 17.3 | 9.5 | CC1(C)[C@H](Nc2c(C(N)=O)cnn3cc(-c4ccc(N5CCCC5)nc4)cc23)CC[C@]1(C)N [Example 213, 4-(((1R,3S)-3-amino-2,2,3-trimethylcyclopentyl)amino)-6-(6-(1-pyrrolidinyl)-3-pyridinyl)pyrrolo[1,2-b]pyridazine-3-carboxamide]
16 | 1.3 | 0.3 | Cc1cccc(-c2cc3c(N[C@@H]4CCC[C@]4(C)F)c(C(N)=O)cnn3c2)c1 (racemic) [Example 72]

Row | IC50 (JAK1) [nM] | IC50 (JAK3) [nM] | Compound
17 | 69.4 | 44.2 | CC1(C)[C@H](Nc2c(C(N)=O)cnn3cc(N4CCOCC4=O)cc23)CC[C@]1(C)N [Example 312, 4-(((1R,3S)-3-amino-2,2,3-trimethylcyclopentyl)amino)-6-(3-oxo-4-morpholinyl)pyrrolo[1,2-b]pyridazine-3-carboxamide]
18 | 2.2 | 1.9 | CC1(C)[C@H](Nc2c(C(N)=O)cnn3cc(-c4ccc(F)nc4)cc23)CC[C@]1(C)C(N)=O [Example 339, 4-(((1R,3S)-3-carbamoyl-2,2,3-trimethylcyclopentyl)amino)-6-(6-fluoropyridin-3-yl)pyrrolo[1,2-b]pyridazine-3-carboxamide]
19 | 0.7 | 0.3 | CC1(C)[C@H](Nc2c(C(N)=O)cnn3cc(-c4ccc(CO)cc4)cc23)CC[C@]1(C)N [Example 271, 4-(((1R,3S)-3-amino-2,2,3-trimethylcyclopentyl)amino)-6-(4-(hydroxymethyl)phenyl) pyrrolo[1,2-b]pyridazine-3-carboxamide]
20 |  | 62.7 | Cn1nccc1-c1cc2c(N[C@H]3CC[C@@](C)(O)CC3)c(C(N)=O)cnn2c1 [Example 162, 4-((4-hydroxy-4-methylcyclohexyl)amino)-6-(1-methyl-1H-pyrazol-5-yl)pyrrolo[1,2-b]pyridazine-3-carboxamide]
21 |  | 6.2 | Cn1nccc1-c1cc2c(NC3C4CC5CC3CC(O)(C5)C4)c(C(N)=O)cnn2c1 (centres unmarked) [Example 185, 4-((5-hydroxyadamantan-2-yl)amino)-6-(1-methyl-1H-pyrazol-5-yl) pyrrolo[1,2-b] pyridazine-3-carboxamide]
22 | 258 | 23.4 | CC1(C)[C@H](Nc2c(C(N)=O)cnn3cc(NS(=O)(=O)c4ccc(Cl)cc4)cc23)CC[C@@]1(C)O (racemic) [Example 23]
23 | 239 | 22.1 | CC1(C)[C@H](Nc2c(C(N)=O)cnn3cc(NS(=O)(=O)c4ccccc4)cc23)CC[C@@]1(C)O (racemic) [Example 22]
24 | 4.3 | 7.3 | NC(=O)c1cnn2cc(-c3ccc4scnc4c3)cc2c1NC12CC3CC(O)(CC(O)(C3)C1)C2 [Example 299, 6-(1,3-benzothiazol-5-yl)-4-((3,5-dihydroxyadamantan-1-yl)amino)pyrrolo [1,2-b]pyridazine-3-carboxamide]
25 | 72.4 | 33.6 | C[C@]1(O)CC[C@@H](Nc2c(C(N)=O)cnn3cc(-c4ccccc4C(N)=O)cc23)CC1 [Example 166, 6-(2-carbamoylphenyl)-4-((cis-4-hydroxy-4-methylcyclohexyl)amino)pyrrolo[1,2-b]pyridazine-3-carboxamide]
26 | 2.6 | 1 | CC1(C)[C@H](Nc2c(C(N)=O)cnn3cc(-c4ccccc4)cc23)CC[C@]1(C)NS(C)(=O)=O [Example 129]
27 |  | 1 | COc1ccccc1-c1cc2c(NC3C4CC5CC3CC(O)(C5)C4)c(C(N)=O)cnn2c1 (centres unmarked) [Example 178, 4-((5-hydroxyadamantan-2-yl)amino)-6-(2-methoxyphenyl)pyrrolo [1,2-b]pyridazine-3-carboxamide]
28 |  | 524 | Cc1cccc(C)c1-c1cc2c(NC3C4CC5CC3CC(O)(C5)C4)c(C(N)=O)cnn2c1 (centres unmarked) [Example 177, 6-(2,6-dimethylphenyl)-4-((5-hydroxyadamantan-2-yl)amino)pyrrolo [1,2-b]pyridazine-3-carboxamide]
29 |  | 46.4 | C[C@]1(F)CCC[C@H]1Nc1c(C(N)=O)cnn2cc(-c3cncc4ccccc34)cc12 (racemic) [Example 68]
30 |  | 8.9 | COc1cccc(-c2cc3c(NC4C5CC6CC4CC(O)(C6)C5)c(C(N)=O)cnn3c2)c1 (centres unmarked) [Example 176, 4-((5-hydroxyadamantan-2-yl)amino)-6-(3-methoxyphenyl)pyrrolo [1,2-b]pyridazine-3-carboxamide]
31 | 63.4 |  | Cc1ccc(-c2cc3c(NC4C5CC6CC4CC(O)(C6)C5)c(C(N)=O)cnn3c2)cc1 (centres unmarked) [Example 187, 4-((5-hydroxyadamantan-2-yl)amino)-6-(4-methylphenyl)pyrrolo [1,2-b]pyridazine-3-carboxamide]

Row | Compound | IC50 (JAK1) [nM] | IC50 (JAK3) [nM]
32 | CC1(C)[C@@H](Nc2c(C(N)=O)cnn3cc(-c4ccc(C#N)cc4)cc23)CC[C@@]1(C)N [Example 112] | 12.7 | 9.4
